Source: PMC4844368 (The Biochemical journal, 2015)

T1: Aurora A (Homo sapiens, UniProt O14965)
T1 sequence (O14965 1-403): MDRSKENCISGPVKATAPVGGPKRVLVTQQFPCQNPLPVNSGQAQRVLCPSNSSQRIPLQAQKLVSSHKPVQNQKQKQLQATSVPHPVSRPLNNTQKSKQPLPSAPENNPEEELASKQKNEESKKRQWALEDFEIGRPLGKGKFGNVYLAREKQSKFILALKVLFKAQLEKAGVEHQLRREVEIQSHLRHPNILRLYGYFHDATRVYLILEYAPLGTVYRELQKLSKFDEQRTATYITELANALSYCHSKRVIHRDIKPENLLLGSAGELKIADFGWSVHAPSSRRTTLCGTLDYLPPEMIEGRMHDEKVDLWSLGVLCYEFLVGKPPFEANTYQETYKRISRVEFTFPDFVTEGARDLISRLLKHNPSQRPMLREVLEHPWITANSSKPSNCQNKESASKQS

T2: CASK (Homo sapiens, UniProt O14936)
T2 sequence (O14936 1-337): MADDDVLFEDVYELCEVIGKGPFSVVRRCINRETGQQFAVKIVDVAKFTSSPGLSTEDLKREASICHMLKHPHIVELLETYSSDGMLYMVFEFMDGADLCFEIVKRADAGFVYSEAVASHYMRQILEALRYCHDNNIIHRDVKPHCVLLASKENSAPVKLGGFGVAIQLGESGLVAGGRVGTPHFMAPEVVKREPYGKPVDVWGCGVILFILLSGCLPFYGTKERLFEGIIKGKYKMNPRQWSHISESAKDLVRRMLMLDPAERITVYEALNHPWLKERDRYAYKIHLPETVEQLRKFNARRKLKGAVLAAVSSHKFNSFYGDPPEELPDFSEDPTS

T3: TRB2 (Homo sapiens, UniProt Q92519)
T3 sequence (Q92519 1-343): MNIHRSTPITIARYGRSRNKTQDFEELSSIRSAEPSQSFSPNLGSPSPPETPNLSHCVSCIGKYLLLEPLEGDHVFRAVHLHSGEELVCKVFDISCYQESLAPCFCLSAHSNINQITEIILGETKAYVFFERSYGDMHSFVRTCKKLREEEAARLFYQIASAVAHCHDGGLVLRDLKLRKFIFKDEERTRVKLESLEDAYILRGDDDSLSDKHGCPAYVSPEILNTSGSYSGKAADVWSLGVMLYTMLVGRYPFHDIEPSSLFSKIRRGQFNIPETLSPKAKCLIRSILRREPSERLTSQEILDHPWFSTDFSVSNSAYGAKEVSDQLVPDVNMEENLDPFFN

T4: TRB2 (Homo sapiens, UniProt Q92519, K90A)
T4 sequence (Q92519 1-343 K90A): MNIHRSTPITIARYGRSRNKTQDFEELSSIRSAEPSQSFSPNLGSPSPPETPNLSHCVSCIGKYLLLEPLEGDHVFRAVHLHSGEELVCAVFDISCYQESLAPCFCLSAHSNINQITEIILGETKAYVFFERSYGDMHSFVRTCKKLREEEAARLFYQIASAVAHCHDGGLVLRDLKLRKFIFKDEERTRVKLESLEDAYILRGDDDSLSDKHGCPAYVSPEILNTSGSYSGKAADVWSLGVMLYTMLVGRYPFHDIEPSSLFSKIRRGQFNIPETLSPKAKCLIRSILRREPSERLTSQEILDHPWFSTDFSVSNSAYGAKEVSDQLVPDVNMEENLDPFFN

T5: TRB2 (Homo sapiens, UniProt Q92519, K90M)
T5 sequence (Q92519 1-343 K90M): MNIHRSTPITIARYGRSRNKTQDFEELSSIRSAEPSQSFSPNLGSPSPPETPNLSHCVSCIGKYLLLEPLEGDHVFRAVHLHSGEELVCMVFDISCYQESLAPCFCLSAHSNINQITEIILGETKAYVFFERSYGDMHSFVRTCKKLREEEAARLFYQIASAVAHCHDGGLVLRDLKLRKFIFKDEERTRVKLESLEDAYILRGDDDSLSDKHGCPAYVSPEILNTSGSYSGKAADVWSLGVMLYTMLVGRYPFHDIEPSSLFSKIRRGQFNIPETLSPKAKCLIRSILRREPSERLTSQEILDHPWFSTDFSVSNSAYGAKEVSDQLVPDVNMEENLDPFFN


Experiments:
Aurora A = target: T1, Aurora A; experiment: intrinsic fluorescence thermal shift; assay type: binding; details: 1 mM ATP, 10 mM Mg2+, no EDTA, TRB buffer pH 9.0
CASK = target: T2, CASK; experiment: Sypro Orange thermal shift; assay type: binding; details: ATP dose series, 2 mM EDTA, TRB buffer pH 9.0
TRB2 [1] = target: T3, TRB2; experiment: intrinsic fluorescence thermal shift; assay type: binding; details: 1 mM ATP, 2 mM EDTA, TRB buffer pH 9.0
TRB2 [2] = target: T4, TRB2; experiment: intrinsic fluorescence thermal shift; assay type: binding; details: 1 mM ATP, 2 mM EDTA, TRB buffer pH 9.0
TRB2 [3] = target: T5, TRB2; experiment: intrinsic fluorescence thermal shift; assay type: binding; details: 1 mM ATP, 2 mM EDTA, TRB buffer pH 9.0
purified protein = substrate: Nc1ncnc2c1ncn2[C@@H]1O[C@H](COP(=O)(O)OP(=O)(O)OP(=O)(O)O)[C@@H](O)[C@H]1O; experiment: purified protein; assay type: biochemical, Homo sapiens; details: co-substrate histone H3; Mg2+-ATP

ΔTm (Aurora A)	ΔTm (TRB2 [1])	ΔTm (TRB2 [2])	ΔTm (TRB2 [3])	Molecule	ΔTm (CASK)	Km (purified protein)
2.99 °C	3.64 °C	0.23 °C	1.59 °C	Nc1ncnc2c1ncn2[C@@H]1O[C@H](COP(=O)(O)OP(=O)(O)OP(=O)(O)O)[C@@H](O)[C@H]1O [ATP]	both CASK and TRB2 exhibited demonstrable dose-dependent binding to ATP	
				Aurora A (Homo sapiens) (protein) MDRSKENCISGPVKATAPVGGPKRVLVTQQFPCQNPLPVNSGQAQRVLCPSNSSQRIPLQAQKLVSSHKPVQNQKQKQLQATSVPHPVSRPLNNTQKSKQPLPSAPENNPEEELASKQKNEESKKRQWALEDFEIGRPLGKGKFGNVYLAREKQSKFILALKVLFKAQLEKAGVEHQLRREVEIQSHLRHPNILRLYGYFHDATRVYLILEYAPLGTVYRELQKLSKFDEQRTATYITELANALSYCHSKRVIHRDIKPENLLLGSAGELKIADFGWSVHAPSSRRTTLCGTLDYLPPEMIEGRMHDEKVDLWSLGVLCYEFLVGKPPFEANTYQETYKRISRVEFTFPDFVTEGARDLISRLLKHNPSQRPMLREVLEHPWITANSSKPSNCQNKESASKQS		14.3 ± 2.6 µM
